This note sets out measurements from ChEMBL document CHEMBL1201862, “PubChem BioAssay data set” (2004).

Among the test systems are A549; HCT-15; Hs-578T; K562; KM12; LOX IMVI; M14; MDA-MB-435; NCI-H226; OVCAR-4; OVCAR-5; SK-MEL-2; SN12C; SNB-19; SNB-75; SW-620; U-251; UACC-257; SR.
Holding throughout (assay): growth of human tumour cells (NCI), 48 h

SMILES strings stand for the structures.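 Grown in 96-well plates, cells were treated for 48 hours with each compound at five concentrations. Insufficient inhibition: endpoint recorded as highest concentration tested. GI50 is the concentration that inhibits growth by half.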 The source made the active and inactive calls. Rule as the data show it: active = GI50 up to about 1.1 µM and inactive = higher.

`CCOC(=O)c1cc2c([N+](=O)[O-])c(N)ccc2s1`: the GI50 is > 100 µM (inactive) in the assay on A549; above 100 µM with HCT-15; > 100 µM (inactive) with Hs-578T; > 100 µM (inactive) in the assay on K562; > 100 µM (inactive) in the assay with KM12; > 100 µM (inactive) in the assay with LOX IMVI. In addition, the GI50 in the assay on M14, in the assay on MDA-MB-435, in the assay with NCI-H226, with OVCAR-4, with OVCAR-5 and with SK-MEL-2 was > 100 µM (inactive) in each case. For the same compound, the GI50 with SN12C was > 100 µM (inactive); in the assay with SNB-19, > 100 µM (inactive); with SNB-75, 72.3 µM (inactive); in the assay with SW-620, > 100 µM (inactive); in the assay with U-251 it was > 100 µM (inactive); with UACC-257, > 100 µM (inactive).

As for `C#CC[C@@H]1C(=O)N(Cc2ccc(OC)cc2)[C@@H](C(C)C)C(=O)N1Cc1ccc(OC)cc1`, the GI50 was 36.1 µM (inactive) with A549; 40.5 µM with HCT-15; > 100 µM (inactive) in the assay on Hs-578T; 32.4 µM (inactive) in the assay with K562; 35.8 µM (inactive) in the assay with KM12; 36.4 µM (inactive) in the assay with LOX IMVI. Further, the GI50 was 36.5 µM (inactive) in the assay with M14; 36.1 µM (inactive) in the assay with MDA-MB-435; 35.2 µM (inactive) in the assay with NCI-H226; 74 µM (inactive) in the assay on OVCAR-4; 67.5 µM (inactive) in the assay with OVCAR-5; 19.9 µM (inactive) with SK-MEL-2. Further, the GI50 with SN12C was 53 µM (inactive); in the assay with SNB-19 it was 64.4 µM (inactive); in the assay with SNB-75, 24 µM (inactive); with SW-620, 40.5 µM (inactive); with U-251, 39.7 µM (inactive); in the assay with UACC-257 it was 29.9 µM (inactive).

Turning to `CN(C)c1ccc(/N=N/c2ccccn2)cc1`, the GI50 in the assay with A549 was 19.8 µM (inactive); in the assay on HCT-15, 25.2 µM; in the assay on Hs-578T it was > 100 µM (inactive); in the assay with K562 it was 4.61 µM (inactive); in the assay on KM12, 43.1 µM (inactive); in the assay on LOX IMVI it was 57.5 µM (inactive). Further, the GI50 was 9.82 µM (inactive) in the assay on M14; 23.4 µM (inactive) in the assay with MDA-MB-435; 32 µM (inactive) with NCI-H226; 36.2 µM (inactive) in the assay on OVCAR-4; > 100 µM (inactive) with OVCAR-5; 55.1 µM (inactive) in the assay on SK-MEL-2. The GI50 was 41.5 µM (inactive) with SN12C; 58.6 µM (inactive) with SNB-19; 52.1 µM (inactive) with SNB-75; 17.5 µM (inactive) in the assay on SW-620; 4.66 µM (inactive) in the assay with U-251; 3.89 µM (inactive) with UACC-257.

Consider `COc1ccc(N2C(=O)C3c4[nH]c5ccc(Br)cc5c4C4CCC(C(C)(C)C)CC4C3C2=O)cc1` (stereo not drawn), for which the GI50 was > 100 µM (inactive) in the assay on A549; above 100 µM with HCT-15; > 100 µM (inactive) in the assay on Hs-578T; > 100 µM (inactive) in the assay on K562; > 100 µM (inactive) with KM12; > 100 µM (inactive) in the assay with LOX IMVI. Moreover, the GI50 is 94.2 µM (inactive) in the assay with M14; > 100 µM (inactive) with MDA-MB-435; > 100 µM (inactive) in the assay with NCI-H226; > 100 µM (inactive) in the assay on OVCAR-4; > 100 µM (inactive) in the assay with OVCAR-5; > 100 µM (inactive) in the assay on SK-MEL-2. Also, the GI50 in the assay with SN12C, in the assay on SNB-19, with SR, with SW-620, in the assay on U-251 and in the assay with UACC-257 was > 100 µM (inactive) throughout.

On to `CS(=O)(=O)O.[Ag]`, for which the GI50 was 10.3 µM (inactive) in the assay with A549; 18.7 µM in the assay on HCT-15; 37.7 µM (inactive) in the assay on Hs-578T; 2.23 µM (inactive) in the assay with K562; 29 µM (inactive) in the assay on KM12; 3.09 µM (inactive) with LOX IMVI. Moreover, the GI50 in the assay on M14 was 3.17 µM (inactive); in the assay on MDA-MB-435, 2.91 µM (inactive); in the assay on NCI-H226, 25.1 µM (inactive); with OVCAR-4, 2.33 µM (inactive); in the assay with OVCAR-5, 19.3 µM (inactive); with SK-MEL-2, 15.4 µM (inactive). Moreover, the GI50 in the assay with SN12C was 19.1 µM (inactive); in the assay on SNB-19 it was 29.3 µM (inactive); with SNB-75, 12.3 µM (inactive); in the assay on SW-620, 3.01 µM (inactive); with U-251, 16.3 µM (inactive); with UACC-257 it was 10.2 µM (inactive).

Consider `CNC(=O)Nc1nc2cc([N+](=O)[O-])ccc2[nH]1`, for which the GI50 in the assay with A549 was > 100 µM (inactive); in the assay on HCT-15, above 100 µM; in the assay with Hs-578T it was > 100 µM (inactive); in the assay on K562, > 100 µM (inactive); in the assay with KM12, > 100 µM (inactive); with LOX IMVI, > 100 µM (inactive). Further, the GI50 in the assay on M14 is > 100 µM (inactive); with MDA-MB-435 it was > 100 µM (inactive); in the assay with NCI-H226, > 100 µM (inactive); with OVCAR-4 it was > 100 µM (inactive); in the assay on OVCAR-5 it was > 100 µM (inactive); with SK-MEL-2, 21.5 µM (inactive). The GI50 with SN12C was > 100 µM (inactive); in the assay on SNB-19, > 100 µM (inactive); with SR it was 47.1 µM (inactive); in the assay with SW-620, > 100 µM (inactive); with U-251 it was > 100 µM (inactive); in the assay with UACC-257, > 100 µM (inactive).

Take `CCCCN1C(=O)CC2[C@@H]3CCc4cc(OC(C)=O)ccc4C3CC[C@]2(C)C1=O` (stereo partly drawn): the GI50 is > 10 µM (inactive) in the assay with A549; above 10 µM with HCT-15; > 10 µM (inactive) with Hs-578T; > 10 µM (inactive) with K562; > 10 µM (inactive) in the assay on KM12; > 10 µM (inactive) with LOX IMVI. The GI50 in the assay with M14, with MDA-MB-435, in the assay on NCI-H226, in the assay on OVCAR-4, in the assay with OVCAR-5 and in the assay with SK-MEL-2 was > 10 µM (inactive) each time. Further, the GI50 in the assay with SN12C, with SNB-19, in the assay on SR, with SW-620, in the assay on U-251 and with UACC-257 was > 10 µM (inactive) each time.

In the case of `CN(C)CCCN1C(=S)N(CCCN(C)C)c2c3ccccc3nc3c([N+](=O)[O-])ccc1c23`, the GI50 in the assay on A549 was 5.41 µM (inactive); with HCT-15, 5.09 µM; with Hs-578T, 6.27 µM (inactive); in the assay with K562, 4.3 µM (inactive); in the assay with KM12, 3.3 µM (inactive); in the assay with LOX IMVI, 4.42 µM (inactive). In addition, the GI50 is 6.27 µM (inactive) in the assay with M14; 5.47 µM (inactive) in the assay on MDA-MB-435; 8.02 µM (inactive) in the assay with NCI-H226; 11.5 µM (inactive) in the assay with OVCAR-4; 13.8 µM (inactive) in the assay with OVCAR-5; 12.5 µM (inactive) in the assay on SK-MEL-2. Further, the GI50 in the assay on SN12C was 4.15 µM (inactive); with SNB-19, 8.67 µM (inactive); in the assay on SNB-75, 7.46 µM (inactive); with SW-620 it was 3.05 µM (inactive); in the assay on U-251 it was 6.87 µM (inactive); in the assay on UACC-257 it was 6.01 µM (inactive).

With `CCOC(=O)/C(C#N)=C/c1ccc2c(-c3c(OCC)ccc4cc(/C=C(\C#N)C(=O)OCC)ccc34)c(OCC)ccc2c1`, the GI50 in the assay on A549 is > 100 µM (inactive); in the assay with HCT-15 it was above 100 µM; in the assay with Hs-578T it was > 100 µM (inactive); in the assay on K562, > 100 µM (inactive); in the assay on KM12, > 100 µM (inactive); with LOX IMVI, > 100 µM (inactive). The GI50 is 15.7 µM (inactive) in the assay on M14; > 100 µM (inactive) in the assay on MDA-MB-435; > 100 µM (inactive) in the assay with NCI-H226; > 100 µM (inactive) with OVCAR-4; > 100 µM (inactive) with OVCAR-5; > 100 µM (inactive) in the assay with SK-MEL-2. In addition, the GI50 with SN12C, in the assay with SNB-19, in the assay on SNB-75, in the assay on SW-620, in the assay on U-251 and in the assay with UACC-257 was > 100 µM (inactive) in each case.

With `COc1ccc(/C(CCl)=C(\Nc2ccccc2)c2ccc(OC)c(OC)c2)cc1OC`, the GI50 in the assay on A549 was 85.7 µM (inactive); with HCT-15, above 100 µM; with Hs-578T it was > 100 µM (inactive); in the assay on K562, 58.3 µM (inactive); with KM12 it was > 100 µM (inactive); in the assay on LOX IMVI, > 100 µM (inactive). The GI50 in the assay on M14 was > 100 µM (inactive); with MDA-MB-435 it was > 100 µM (inactive); in the assay on NCI-H226 it was 68.9 µM (inactive); in the assay with OVCAR-4, 75.5 µM (inactive); with OVCAR-5 it was > 100 µM (inactive); in the assay on SK-MEL-2, > 100 µM (inactive). The GI50 in the assay on SN12C, in the assay with SNB-19, in the assay on SNB-75, in the assay on SW-620, with U-251 and with UACC-257 was > 100 µM (inactive) in each case.

Regarding `COc1cc2nc3n(c(=O)c2cc1OC)-c1ccc([N+](=O)[O-])cc1C3=O`, the GI50 with A549 is 52.7 µM (inactive); in the assay on HCT-15, 32.4 µM; with Hs-578T, > 100 µM (inactive); in the assay on K562, 31.5 µM (inactive); in the assay with KM12 it was 80.2 µM (inactive); with LOX IMVI it was 38.7 µM (inactive). Further, the GI50 in the assay with M14 was 52.1 µM (inactive); in the assay on MDA-MB-435 it was 19.4 µM (inactive); in the assay on NCI-H226, 26.1 µM (inactive); with OVCAR-4, 15 µM (inactive); in the assay with OVCAR-5, > 100 µM (inactive); with SK-MEL-2 it was > 100 µM (inactive). Besides, the GI50 was 66.7 µM (inactive) with SN12C; > 100 µM (inactive) with SNB-19; 85.1 µM (inactive) in the assay on SNB-75; 11.3 µM (inactive) in the assay with SW-620; 46.7 µM (inactive) in the assay on U-251; 60.5 µM (inactive) in the assay on UACC-257.
